According to US20100298214A1, “TREATMENT OF AUTOIMMUNE DISEASE” (MASSACHUSETTS INSTITUTE OF TECHNOLOGY, priority 2007, published 2010):

Legend:
NOD mice [1] = settings: cited from earlier work
prediabetic NOD mice [2] = system: prediabetic NOD mice
Experimental: (§1) NOD mice were obtained from Taconic Farms. Female NOD mice were used in all the studies and monitored for diabetes by checking urine glucose levels at least two times per week, starting around 12 weeks of age. Mice were considered diabetic when urinary glucose level reached 500 mg/dl, as measured with Diastix (Bayer Diagnostics). […] BALB/c mice were purchased from Jackson Laboratory. EA16NOD mice were obtained from Drs. Diane Mathis and Christopher Benoist. Cxcr4^fif Lck-Cre mice and littermate Cxcr4^−if Lck-Cre were on the mixed 129/C57BL/6 background and were generated by breeding Cxcr4^+if Lck-Cre mice. All mice were kept under specific pathogen free facilities. For AMD3100 treatment, prediabetic NOD mice were given AMD3100 (5 mg/kg) subcutaneously daily for the indicated lengths of time. For analysis of T cell distribution, mice were sacrificed at 2 hours after the last AMD3100 injection.
Single-cell suspensions were prepared from the spleen, lymph nodes (e.g., superficial cervical, brachial, axillary, inguinal, mesenteric, and pancreas-draining lymph nodes), and bone marrow (e.g., obtained by flushing two femurs and two tibias with cold RPMI 1640 medium containing 5% fetal calf serum [FCS]). All staining antibodies were purchased from BDbioscience, except anti-Foxp3, lineage markers (Lin), and c-Kit and Sea-1, which were from E-bioscience, Stem Cell Technologies, and Biolegend, respectively. Cells were stained in the presence of 2.5 μg/ml anti-FcR antibody in PBS containing 0.1% BSA and 0.1% NaN3 and analyzed on a FACScaliber or a LSR II or a FACSAria, collecting 10,000 to 1,000,000 live cells per sample. Analyses were carried out with Flowjo software. For analysis of LSK cells, 10% of total cells with low level of lineage marker expression were gated for further analysis of Sca-1 versus c-Kit expression profiles. Intracellular staining of Foxp3 and Ki67 was performed according to the manufacturer's instruction.
AMD3100 is a small molecule antagonist of CXCR4 (De Clercq, 2003, supra; incorporated herein by reference). […] Thus, prediabetic NOD mice were given AMD3100 (5 mg/kg) daily for 8 days, and the distribution and phenotype of T cells in their bone marrow were assayed.

prediabetic NOD mice [3] = settings: daily for 8 days (FIGS. 8A and 8B)
Experimental: as §1

NOD mice [4] = assay: Diabetes incidence monitored by urine glucose level; type: in vivo, mouse
From the text: NOD mice were obtained from Taconic Farms. […] BALB/c mice were purchased from Jackson Laboratory. EA16NOD mice were obtained from Drs. Diane Mathis and Christopher Benoist. […] All mice were kept under specific pathogen free facilities.
To test whether continuous AMD3100 treatment can inhibit the development of diabetes, prediabetic NOD mice (15 weeks of age) were given AMD3100 daily for 14 weeks. PBS-treated NOD mice started to show evidence of diabetes at 16 weeks of age, and by 29 weeks of age, all mice developed diabetes (FIG. 8D).

[5] = system: sublethally irradiated male NOD mice; settings: Aboumrad et al., 2007; cited from earlier work
CXCR4 = molecular target: T1, CXCR4 (Homo sapiens, UniProt P61073); settings: induction of internalization after binding; Liu et al., 2004; cited from earlier work
T1 construct: endogenous in cells; host or cells: human peripheral mononuclear cells (PBMCs)

[6] = treatment for 8 days (FIG. 10G)
[7] = treatment for 8 days (FIG. 10H)

T1 sequence (P61073 whole entry): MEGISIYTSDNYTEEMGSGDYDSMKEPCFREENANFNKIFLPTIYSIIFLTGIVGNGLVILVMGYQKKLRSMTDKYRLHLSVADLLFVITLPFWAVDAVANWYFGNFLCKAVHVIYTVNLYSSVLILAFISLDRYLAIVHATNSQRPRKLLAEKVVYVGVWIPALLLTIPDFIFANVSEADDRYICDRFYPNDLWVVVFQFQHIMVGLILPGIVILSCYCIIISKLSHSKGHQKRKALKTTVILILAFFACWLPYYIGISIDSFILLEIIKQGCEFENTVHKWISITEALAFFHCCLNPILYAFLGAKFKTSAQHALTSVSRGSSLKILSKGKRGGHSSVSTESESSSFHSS

G-CSF: granulocyte colony-stimulating factor, a known suppressor of CXCL12 expression
insulitis and diabetes (NOD mice [1]; NOD mice, literature): reduced
onset of type I diabetes (NOD mice [1]; NOD mice, literature): significantly delays

Cl.Cl.Cl.Cl.Cl.Cl.Cl.Cl.O.O.c1cc(CN2CCCNCCNCCCNCC2)ccc1CN1CCCNCCNCCCNCC1 [AMD3100, 1,1′-[1,4-phenylenebis(methylene)]-bis-1,4,8,11-tetraazacyclotetradecane octahydrochloride dihydrate]
proportion of CD4 T cells with the naïve phenotype (CD45RB^hi CD44^lo) in bone marrow (prediabetic NOD mice [2]; 5 mg/kg daily for 8 days (FIG. 5B)): preferentially reduced
proportion of both CD4 and CD8 T cells in the bone marrow (prediabetic NOD mice [2]; 5 mg/kg daily for 8 days, compared to PBS (FIG. 5A)): significantly reduced
percentage of HSC in the bone marrow (prediabetic NOD mice [2]; 8 days, compared to PBS-treated NOD mice, p=0.06 (FIG. 10D)): reduced
percentage of T cells that proliferated in the spleen and pancreas-draining lymph nodes (prediabetic NOD mice [2]; AMD3100 treatment of NOD mice): did not significantly affect
distribution of NKT cells, dendritic cells, or B cells (prediabetic NOD mice [2]; NOD mice following AMD3100 treatment (FIG. 6)): nor any change
percentages (mean±SE) of CD45RB^hi CD44^lo naïve T cells among TCR+CD4+ cells (prediabetic NOD mice [2]; bone marrow, prediabetic NOD mice 15-16 weeks of age, daily for 8 days, n=4, p<0.01 vs PBS): 24.8±3.2%
NKT cell distribution in various organs (prediabetic NOD mice [2]; prediabetic NOD mice, 8 days (FIG. 6)): does not affect
number of HSCs (Lin-Sca1+c-Kit+) in the bone marrow (prediabetic NOD mice [2]; treatment for 8 days (FIG. 7C)): significantly reduced
percentage of Foxp3+CD4+ Treg cells in the bone marrow (prediabetic NOD mice [2]; [6]): increased
percentages of Tregs in the pancreas-draining lymph node (PDLN) (prediabetic NOD mice [2]; [6]): increased significantly
percentages of Tregs in the spleen (prediabetic NOD mice [2]; [6]): increased significantly
number of Tregs in the spleen (prediabetic NOD mice [2]; [7]): increased significantly
total number of Tregs in the bone marrow (prediabetic NOD mice [2]; [7]): decreased
lymphocyte infiltration into the islets (insulitis) (prediabetic NOD mice [3]; prediabetic NOD mice 15 weeks of age): significantly reduced
peri-insulitis (prediabetic NOD mice [3]; prediabetic NOD mice): without affecting
time after termination of treatment at which mice began to develop diabetes (NOD mice [4]; after three weeks of daily treatment): two weeks
diabetes incidence after termination of treatment (NOD mice [4]; by 26 weeks of age, three weeks of daily treatment, same level as PBS-treated mice): 70%
mice that developed diabetes during continuous treatment (NOD mice [4]; daily for 14 weeks from 15 weeks of age, up to 29 weeks of age (FIG. 8D)): none
mice that developed diabetes during treatment (NOD mice [4]; daily for three weeks from 15-16 weeks of age, period between 17 and 20 weeks of age (FIG. 8C)): none
diabetes development in the transfer model [5]: promotes

O=C1c2c(O)cc(O)cc2O[C@H](c2cc(O)c(O)c(O)c2)[C@H]1O [ampelopsin]
CXCR4 on the surface of human peripheral mononuclear cells (PBMCs) (CXCR4): decrease

CXCL12: chemokine (C-X-C motif) ligand 12, administered systemically (Yano et al., 2007)
diabetes on systemic administration (NOD mice [1]; Yano et al., 2007): ameliorates
